Square brackets hold non-standard residues; d marks the D form. Peptide text beside a SMILES is read from it.
What was measured:
[1] = system: PC-12 cells; test: MTT reduction test, Aβ1-42-induced cell toxicity; assay type: cell-based; settings: batch containing only Mosd1, 24 hours, 37° C.
Description: The samples were placed in the culture medium of the cells and were incubated over 24 hours with the cells at 37° C. The viability of the cells was then determined on the basis of an MTT test. Here, a metabolic reactant was supplied to the cells, which reactant could be converted by metabolically active cells (living cells). Formazan crystals are the product of this conversion and can be dissolved. The coloration of the medium after solubilization corresponds to the conversion rate of the reactant and therefore the viability of the cells. Untreated cells (medium, white chequered pattern) served as living control, and the proportion of vital cells was defined as 100%. The values of the other batches were normalized to this value.

[2] = biological target: T1, Aβ1-42 species of different size (Homo sapiens, UniProt P05067); test: Density gradient centrifugation, tris-tricine SDS gel and silver staining of Aβ1-42 species; assay type: biochemical
Description: The batch was then incubated either with or without addition of peptide for a further 40 minutes and was then placed on an iodixanol density gradient. The gradient was then centrifuged, wherein the contents of the sample (Aβ1-42 species of different size) diffused within the gradient in accordance with their size and shape. The gradient was fractionated after centrifugation into 15 fractions (1-15), and the first 14 individual fractions were applied to a tris-tricine SDS gel. The contents per fraction were separated electrophoretically. […] The batch was then incubated either without (A) or with addition of different concentrations of Mosd1 (B=10 μM Mossd1; C=20 μM Mosd1; D=40 μM Mosd1; E=80 μM Mosd1) for a further 40 minutes and was then placed on an iodixanol density gradient. The gradient was then centrifuged, wherein the contents of the sample (Aβ1-42 species of different size) diffused within the gradient in accordance with their size and shape. The gradient was fractionated after centrifugation (1-15), and the individual fractions were applied to a tris-tricine SDS gel. The contents per fraction were separated electrophoretically.

[3] = biological target: Aβ1-42 (Homo sapiens, UniProt P05067); test: ThT test, modulation of Aβ1-42 aggregation; assay type: biochemical; settings: 10 μM Aβ1-42, equimolar peptide, versus Aβ1-42 alone = 100%
Text: FIG. 3: The average relative fluorescence from seven independently performed ThT experiments with standard deviation is shown. The dye Thioflavin T (ThT) binds to β-pleated sheet structures in the batch and thereupon changes its fluorescence spectrum. […] The time in which the logarithmic rise of the fluorescence signal transitioned into a stationary phase was set to 100%.

[4] = biological target: T1, Aβ1-42 species of different size; test: Quantification of density gradient fractions by RP-HPLC; assay type: biochemical
Text: Certain further embodiments of the invention including a method will be presented hereinafter. What is known as the QIAD test (quantitative determination of interference with Aβ aggregate size distribution) can be used for the quantitative analysis of active substances. The method for quantitative analysis of the influence of an active substance on the particle size distribution of amyloid peptides and/or proteins in a sample has the following steps: A beta is first left to aggregate under controlled conditions, so that different A beta aggregates form. The conditions are selected so that a particularly large amount of small, particularly cytotoxic A beta oligomers are formed. […] This change is determined quantitatively. […] Due to the QIAD method, the increase or decrease of A beta aggregates of a specific particle size is measured. […] The concentration of A beta in the respective fractions is then determined by a complete denaturing of the A beta species during a reversed-phase (RP-)HPLC performed subsequently to the fractionation. […] Eluting A beta is detected by means of UV absorption at 215 nm. […] The mean value from a number of experiments carried out independently of one another (for example six) with the resultant standard deviation can be calculated for each fraction. […]
Samples of each fraction from the experiment shown in FIG. 5 were separated and quantified by means of reversed-phase HPLC. […]

[5] = 80 μM Aβ1-42 pre-incubated […], 40 μM peptide for 40 minutes

T1 sequence (P05067 672-713 limits assumed): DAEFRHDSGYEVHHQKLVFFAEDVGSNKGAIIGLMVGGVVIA
Sequence of Aβ1-42 (P05067 672-713 limits assumed): as above

- oligomeric Aβ1-42 species (fractions 4-7) [2, 5]: reduce
- proportions of high-molecular Aβ1-42 species (fractions 10-14) [2, 5]: increase
- signal strength in fractions 1-2 (monomeric Aβ) ([2]; concentrations higher than 20 μM Mosd1): reduction of the signal strength
- relative ThT fluorescence (formation of β-pleated sheet structures) [3]: reduce the relative fluorescence
- concentration of high-molecular Aβ species (fractions 11-14) ([4]; 10-80 μM Mosd1, 80 μM Aβ1-42): rises
Structure (SMILES): CSCC[C@@H](NC(=O)[C@@H](Cc1c[nH]cn1)NC(=O)[C@@H](Cc1ccc(O)cc1)NC(=O)[C@@H](CO)NC(=O)[C@H](NC(=O)[C@@H](CC(C)C)NC(=O)[C@@H](Cc1ccc(O)cc1)NC(=O)[C@@H](CO)NC(=O)[C@H](N)Cc1ccc(O)cc1)[C@H](C)O)C(=O)N[C@@H](C(=O)N[C@H](Cc1c[nH]c2ccccc12)C(=O)N[C@H](CCCNC(=N)N)C(N)=O)C(C)C [Mosd1] (H-[dY][dS][dY][dL][dT][dS][dY][dH][dM][dV][dW][dR]-NH2)
- viability of PC-12 cells, peptide alone [1]: no influence
- proportion of small Aβ1-42 species and toxic oligomers ([2]; higher concentrations, 40 μM and 80 μM Mosd1, 80 μM Aβ1-42): reduce the proportion of small Aβ1-42 species and toxic oligomers considerably
- proportion of toxic oligomers (fractions 4-7) ([2]; lower concentrations, 10 μM and 20 μM Mosd1, 80 μM Aβ1-42): reduce the proportion of toxic oligomers
- concentrations of Aβ in the fractions which contained the toxic oligomers ([4]; 10-80 μM Mosd1, 80 μM Aβ1-42, 3 independent experiments): decrease with increasing concentration of Mosd1

Source: patent US10239923B2, “Specific amyloid beta binding peptides and the use of same for treating and diagnosing alzheimer's dementia” (Forschungszentrum Juelich GmbH, priority 2015, dated 2019)
